# From PMC4766392, “Identification and Characterization of the Glucose-6-Phosphate Dehydrogenase Gene Family in the Para Rubber Tree, Hevea brasiliensis” (Frontiers in Plant Science, 2016)
# Legend:
# Test in all cases: NADPH formation at […] nm, commercial kit, E. coli supernatant
# Format in all cases: biochemical
# Details in all cases: 25°C, MBP fusion, empty-vector control
# [1] = biological target: T1, HbG6PDH3 (Hevea brasiliensis, UniProt A0A068LJY6)
# T1 construct: gene G6PDH-3; primer with start codon ATGGGTTCGGGTCAGTGG
# T1 sequence (A0A068LJY6 entry or part of it): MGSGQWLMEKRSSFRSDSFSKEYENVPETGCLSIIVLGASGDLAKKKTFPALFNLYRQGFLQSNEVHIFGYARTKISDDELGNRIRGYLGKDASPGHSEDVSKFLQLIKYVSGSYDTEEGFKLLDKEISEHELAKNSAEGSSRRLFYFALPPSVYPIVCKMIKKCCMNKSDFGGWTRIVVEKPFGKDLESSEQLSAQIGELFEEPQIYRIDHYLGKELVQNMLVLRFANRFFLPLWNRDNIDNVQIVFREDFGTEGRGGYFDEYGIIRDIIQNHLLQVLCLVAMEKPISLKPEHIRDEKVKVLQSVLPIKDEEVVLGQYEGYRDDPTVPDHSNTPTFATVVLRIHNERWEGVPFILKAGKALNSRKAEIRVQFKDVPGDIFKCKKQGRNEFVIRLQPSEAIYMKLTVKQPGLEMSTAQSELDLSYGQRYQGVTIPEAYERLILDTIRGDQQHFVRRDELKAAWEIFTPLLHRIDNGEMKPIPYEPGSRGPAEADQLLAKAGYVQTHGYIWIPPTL
# [2] = biological target: T2, HbG6PDH2 (Hevea brasiliensis, UniProt A0A068LJJ9)
# T2 construct: gene G6PDH-2; forward primer starts at ATGGCGCCCCTTTC
# T2 sequence (A0A068LJJ9 entry or part of it): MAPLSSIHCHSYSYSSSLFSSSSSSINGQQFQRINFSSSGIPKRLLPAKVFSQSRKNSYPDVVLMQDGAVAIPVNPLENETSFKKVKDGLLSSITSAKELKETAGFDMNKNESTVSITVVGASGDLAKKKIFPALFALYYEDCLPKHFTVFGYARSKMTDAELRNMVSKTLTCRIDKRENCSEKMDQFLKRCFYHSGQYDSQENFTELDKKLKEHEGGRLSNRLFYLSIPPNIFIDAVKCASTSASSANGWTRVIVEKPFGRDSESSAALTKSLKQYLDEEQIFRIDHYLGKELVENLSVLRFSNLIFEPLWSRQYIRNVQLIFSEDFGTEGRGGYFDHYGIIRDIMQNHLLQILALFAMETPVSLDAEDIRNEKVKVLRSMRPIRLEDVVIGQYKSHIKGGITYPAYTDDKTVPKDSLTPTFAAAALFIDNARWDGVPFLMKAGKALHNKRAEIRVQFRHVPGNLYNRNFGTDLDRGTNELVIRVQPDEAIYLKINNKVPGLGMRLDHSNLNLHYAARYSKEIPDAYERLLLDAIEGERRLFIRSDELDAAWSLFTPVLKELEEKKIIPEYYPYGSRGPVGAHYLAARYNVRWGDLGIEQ
# [3] = biological target: T3, HbG6PDH4 (Hevea brasiliensis, UniProt A0A068LJB4)
# T3 construct: gene G6PDH-4; primer with start codon ATGTCGATGTCAATTTC
# T3 sequence (A0A068LJB4 entry or part of it): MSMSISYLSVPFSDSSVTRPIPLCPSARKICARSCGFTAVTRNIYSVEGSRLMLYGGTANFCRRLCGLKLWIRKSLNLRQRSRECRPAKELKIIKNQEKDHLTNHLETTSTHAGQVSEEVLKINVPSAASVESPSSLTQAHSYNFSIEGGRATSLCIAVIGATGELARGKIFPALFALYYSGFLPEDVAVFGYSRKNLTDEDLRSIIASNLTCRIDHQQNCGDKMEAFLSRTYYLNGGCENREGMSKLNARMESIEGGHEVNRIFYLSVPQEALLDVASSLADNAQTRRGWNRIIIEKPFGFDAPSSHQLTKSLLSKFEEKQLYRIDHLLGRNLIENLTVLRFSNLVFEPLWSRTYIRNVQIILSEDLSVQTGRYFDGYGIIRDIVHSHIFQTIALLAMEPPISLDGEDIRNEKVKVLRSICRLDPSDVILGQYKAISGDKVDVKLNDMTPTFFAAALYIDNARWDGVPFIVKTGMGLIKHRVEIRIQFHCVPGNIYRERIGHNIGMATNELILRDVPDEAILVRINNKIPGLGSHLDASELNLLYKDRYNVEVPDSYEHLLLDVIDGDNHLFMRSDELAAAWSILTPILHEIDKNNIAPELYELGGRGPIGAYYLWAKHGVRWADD
# [4] = biological target: T4, HbG6PDH1 (Hevea brasiliensis, UniProt A0A068LLN2)
# T4 construct: gene G6PDH-1; forward primer starts at ATGCCAAGAAAATATGG
# T4 sequence (A0A068LLN2 entry or part of it): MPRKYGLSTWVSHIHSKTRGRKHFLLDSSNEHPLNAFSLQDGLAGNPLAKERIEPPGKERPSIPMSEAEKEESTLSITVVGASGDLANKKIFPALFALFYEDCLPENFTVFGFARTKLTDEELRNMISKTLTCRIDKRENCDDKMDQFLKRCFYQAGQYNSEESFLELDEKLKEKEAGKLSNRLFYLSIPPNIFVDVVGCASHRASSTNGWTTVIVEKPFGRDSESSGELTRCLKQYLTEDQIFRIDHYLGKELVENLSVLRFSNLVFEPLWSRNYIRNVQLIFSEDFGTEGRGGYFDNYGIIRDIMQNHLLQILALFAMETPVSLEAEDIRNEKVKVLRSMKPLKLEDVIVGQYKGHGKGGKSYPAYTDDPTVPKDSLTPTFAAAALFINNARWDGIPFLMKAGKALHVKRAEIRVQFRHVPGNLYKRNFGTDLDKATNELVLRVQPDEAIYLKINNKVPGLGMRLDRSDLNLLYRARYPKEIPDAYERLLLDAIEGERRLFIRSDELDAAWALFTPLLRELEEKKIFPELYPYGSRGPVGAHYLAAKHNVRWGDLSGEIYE
# [5] = glucose-6-phosphate as co-substrate
Compound,"NADPH formation at 340 nm, commercial kit, E. coli supernatant [1, 5]","NADPH formation at 340 nm, commercial kit, E. coli supernatant [2, 5]","NADPH formation at 340 nm, commercial kit, E. coli supernatant [3, 5]","NADPH formation at 340 nm, commercial kit, E. coli supernatant [4, 5]","NADPH formation at 340 nm, commercial kit, E. coli supernatant ([1]; NADP+ as co-substrate)","NADPH formation at 340 nm, commercial kit, E. coli supernatant ([2]; NADP+ as co-substrate)","NADPH formation at 340 nm, commercial kit, E. coli supernatant ([3]; NADP+ as co-substrate)","NADPH formation at 340 nm, commercial kit, E. coli supernatant ([4]; NADP+ as co-substrate)"
NC(=O)c1ccc[n+]([C@@H]2O[C@H](COP(=O)(O)OP(=O)(O)OC[C@H]3O[C@@H](n4cnc5c(N)ncnc54)[C@H](OP(=O)(O)O)[C@@H]3O)[C@@H](O)[C@H]2O)c1 [NADP^+],all four HbG6PDH genes encode enzymatically active G6PDHs,all four HbG6PDH genes encode enzymatically active G6PDHs,all four HbG6PDH genes encode enzymatically active G6PDHs,all four HbG6PDH genes encode enzymatically active G6PDHs,–,–,–,–
O=P(O)(O)OC[C@H]1OC(O)[C@H](O)[C@@H](O)[C@@H]1O (some centres unmarked) [glucose-6-phosphate],–,–,–,–,all four HbG6PDH genes encode enzymatically active G6PDHs,all four HbG6PDH genes encode enzymatically active G6PDHs,all four HbG6PDH genes encode enzymatically active G6PDHs,all four HbG6PDH genes encode enzymatically active G6PDHs
